Columns and labels:
[1] = in vivo; cited from earlier work
[2] = test system: NT-proBNP; test: Plasma NT-proBNP (electrochemiluminescence immunoassay)
[3] = Europe excluding Hungary (n = 48)
[4] = change from baseline, Canada (n = 59)
[5] = change from baseline, Entire Cohort (n = 267)
[6] = change from baseline, Europe excluding Hungary (n = 48)
[7] = change from baseline, Hungary (n = 33)
[8] = change from baseline, U.S. (n = 127)

## COCCc1ccc(OCC(O)CNC(C)C)cc1 (stereo not shown) [metoprolol, metoprolol succinate, reference compound]
[1]
  Bioavailability: approximately 50%
[2]; Canada
  NT-proBNP, Week 4 Mean: 1715 pg/mL
  NT-proBNP, Week 4 Median: 1067 pg/mL
  NT-proBNP, ΔWeek 4 Mean ± SEM: -91 pg/mL
  NT-proBNP, ΔWeek 4 Median: -101 pg/mL
[2]; Canada (n = 59)
  NT-proBNP, Baseline Mean ± SD: 1646 ± 2303 pg/mL
  NT-proBNP, Baseline Median: 913 pg/mL
  NT-proBNP, Week 12 Mean ± SD: 1338 ± 1504 pg/mL
  NT-proBNP, Week 12 Median: 845 pg/mL
  NT-proBNP, Week 24 Mean ± SD: 1382 ± 1974 pg/mL
  NT-proBNP, Week 24 Median: 623 pg/mL
[2]; Entire Cohort
  NT-proBNP, Week 4 Mean: 1212 pg/mL
  NT-proBNP, Week 4 Median: 792 pg/mL
  NT-proBNP, ΔWeek 4 Mean ± SEM: -50 pg/mL
  NT-proBNP, ΔWeek 4 Median: -35 pg/mL
[2]; Entire Cohort (n = 267)
  NT-proBNP, Baseline Median: 861 pg/mL
  NT-proBNP, Week 12 Mean ± SD: 1134 ± 1197 pg/mL
  NT-proBNP, Week 12 Median: 652 pg/mL
  NT-proBNP, Week 24 Mean ± SD: 1334 ± 1732 pg/mL
  NT-proBNP, Week 24 Median: 661 pg/mL
[2]; Europe excluding Hungary
  NT-proBNP, Week 4 Mean: 820 pg/mL
  NT-proBNP, Week 4 Median: 433 pg/mL
  NT-proBNP, ΔWeek 4 Mean ± SEM: -117 pg/mL
  NT-proBNP, ΔWeek 4 Median: -93 pg/mL
[2]; [3]
  NT-proBNP, Baseline Mean ± SD: 883 ± 880 pg/mL
  NT-proBNP, Baseline Median: 521 pg/mL
  NT-proBNP, Week 12 Mean ± SD: 867 ± 885 pg/mL
  NT-proBNP, Week 12 Median: 526 pg/mL
  NT-proBNP, Week 24 Mean ± SD: 1108 ± 962 pg/mL
[2]; Hungary
  NT-proBNP, Week 4 Mean: 812 pg/mL
  NT-proBNP, Week 4 Median: 803 pg/mL
  NT-proBNP, ΔWeek 4 Mean ± SEM: -11 pg/mL
  NT-proBNP, ΔWeek 4 Median: -40 pg/mL
[2]; Hungary (n = 33)
  NT-proBNP, Baseline Mean ± SD: 781 ± 458 pg/mL
  NT-proBNP, Baseline Median: 785 pg/mL
  NT-proBNP, Week 12 Mean ± SD: 864 ± 876 pg/mL
  NT-proBNP, Week 12 Median: 593 pg/mL
  NT-proBNP, Week 24 Mean ± SD: 1150 ± 784 pg/mL
  NT-proBNP, Week 24 Median: 1019 pg/mL
[2]; U.S.
  NT-proBNP, Week 4 Mean: 1227 pg/mL
  NT-proBNP, Week 4 Median: 831 pg/mL
  NT-proBNP, ΔWeek 4 Mean ± SEM: -14 pg/mL
  NT-proBNP, ΔWeek 4 Median: -27 pg/mL
[2]; U.S. (n = 127)
  NT-proBNP, Baseline Mean ± SD: 1499 ± 2033 pg/mL
  NT-proBNP, Baseline Median: 982 pg/mL
  NT-proBNP, Week 12 Mean ± SD: 1224 ± 1240 pg/mL
  NT-proBNP, Week 12 Median: 661 pg/mL
  NT-proBNP, Week 24 Mean ± SD: 1374 ± 1839 pg/mL
  NT-proBNP, Week 24 Median: 547 pg/mL
[2]; [4]
  NT-proBNP, ΔWeek 12 Mean ± SEM: -482 ± 355 pg/mL
  NT-proBNP, ΔWeek 12 Median: -36 pg/mL
  NT-proBNP, ΔWeek 24 Mean ± SEM: -489 ± 361 pg/mL
  NT-proBNP, ΔWeek 24 Median: -106 pg/mL
[2]; [5]
  NT-proBNP, ΔWeek 12 Mean ± SEM: -135 ± 124 pg/mL
  NT-proBNP, ΔWeek 12 Median: -50 pg/mL
  NT-proBNP, ΔWeek 24 Median: -100 pg/mL
[2]; [6]
  NT-proBNP, ΔWeek 12 Mean ± SEM: -70 ± 184 pg/mL
  NT-proBNP, ΔWeek 12 Median: -20 pg/mL
  NT-proBNP, ΔWeek 24 Mean ± SEM: -133 ± 153 pg/mL
  NT-proBNP, ΔWeek 24 Median: -101 pg/mL
[2]; [7]
  NT-proBNP, ΔWeek 12 Mean ± SEM: +45 ± 190 pg/ml
  NT-proBNP, ΔWeek 12 Median: +75 pg/ml
  NT-proBNP, ΔWeek 24 Mean ± SEM: +201 ± 219 pg/ml
  NT-proBNP, ΔWeek 24 Median: +150 pg/ml
[2]; [8]
  NT-proBNP, ΔWeek 12 Mean ± SEM: -63 ± 190 pg/mL
  NT-proBNP, ΔWeek 12 Median: -99 pg/mL
  NT-proBNP, ΔWeek 24 Mean ± SEM: -158 ± 258 pg/mL
  NT-proBNP, ΔWeek 24 Median: -135 pg/mL
[2]; change from baseline, entire cohort
  NT-proBNP, ΔWeek 4 Median: -35 pg/mL
[2]; end of the 24-week follow-up period, U.S.
  NT-proBNP decrease: 20%

Reference: patent publication US10925856B2, “Methods and compositions involving bucindolol for the treatment of atrial fibrillation” (priority 2018, dated 2021)
